The numbers were not newly measured in patent US20200276090A1, “TOPICAL PRODUCTS WITH A BIPHASIC SYSTEM” (CMED AESTHETICS s.r.l., priority 2017, published 2020), which cites them from elsewhere.

The conditions of this data set: after 90 days.

The structures appear in SMILES notation. Where two headings read alike, the source gives them in different places.

In the case of `O=C(O)C(Cl)(Cl)Cl` [TCA, trichloroacetic acid], the “Degradation of TCA” value runs as follows: (TCA in aqueous solution alone) 12.6%; (in the presence of a high percentage of stabilizing agents, on average) 2-3%; (in the presence of a low percentage of stabilizing agents, on average) 4-5%.
